US8785388B2, “TAT-BH3 methods for treating arthritis” (Saint Louis University, priority 2007, dated 2014)
Square brackets hold non-standard residues; d marks the D form. Peptide text beside a SMILES is read from it. Orn = NCCC[C@H](N)C(=O)O

Assays:
Type in all cases: in vivo, mice
IL-1β, TNFα, MCP-1, KC = experiment: Circulating cytokine levels in serum; settings: between saline, TAT-inactive BH3 and TAT-BH3 groups
Method: At each time point and prior to euthanasia, the degree of arthritis as indicated by joint swelling was quantitated by measuring two perpendicular diameters of the ankles using a caliper (Lange Caliper: Cambridge Scientific Industries, Cambridge Mass.). Joint circumference was calculated using the geometric formula of ellipse circumference (2πX √(a^2+b^2)/2). Following euthanasia, serum was isolated from peripheral blood by cardiac stick and ankle joints were removed. One of the ankle joints was fixed in 10% neutral buffered formalin for 24 hours, decalcified in EDTA-decalcification buffer for two weeks, embedded in paraffin, and sectioned. The other ankle joint was placed in liquid nitrogen, grounded into a fine powder by mortal and pestle, digested in protein lysis buffer ([…], 0.5% NP-40, 50 mM Tris, and 2 mM EDTA) in the presence of phosphatase and protease inhibitors, and homogenized on ice for 20 seconds. To examine any toxicity due to systemic delivery of TAT-Bim peptides, alkaline phosphatase (ALP), […] (AST), alanine aminotransferase (ALT), and blood urea nitrogen levels were measured.
TAT-BH3 peptides treatment reduces the numbers of myeloid cells in arthritic joints. […] To this end, the numbers of polymorphonuclear cell and macrophages in saline and BH3 peptide arthritic mice were quantified. […]

peripheral blood cells = experiment: Peripheral blood cell counts (flow cytometry, hematology analyzer)
Method: (§1) Peripheral blood and bone marrow were isolated from mice following euthanasia. Total leukocyte numbers were determined using an automated hematology analyzer ABX Pentra 60 (Diamond Diagnostics, Inc, Holliston, Mass.). The red blood cells in peripheral blood were lysed and the remaining cells were fixed with BD FACS lysing solution (BD Biosciences, Pharmingen) following incubation with antibodies. Bone marrow cells were isolated by flushing Dulbecco's Modified Eagle Medium (DMEM) (Gibco, Grand Island, N.Y.) through the tibias and red blood cells were lysed with BD PharM Lyse (BD Biosciences, Pharmingen) prior to incubation with antibodies. Cells with incubated with Fc Block (BD Biosciences, Pharmingen) then stained with fluorochrome conjugated antibodies to CD45, CD11b, Gr-1, CD62L, Ly-6C, Ly-6G, CD31 (BD Biosciences, Pharmingen) or isotype control antibodies for 30 minutes. Cells were acquired on a BD LSRII (BD Biosciences, Pharmingen) using Diva Software at the Saint Louis University Core Flow Cytometry Facility. All analysis was performed using FlowJo software (Tree Star Inc.).
Peripheral blood was isolated by cardiac sticks. Cells were blocked for 10 minutes with Fc block and then stained with anti-CD45, anti-CD19, anti-CD3, anti-CD4, anti-CDS, anti-CD11b, anti-Gr-1, and anti-CD62L antibodies for 30 minutes. Platelets and RBCs were determined on an automated hematology analyzer ABX Pentra 60. Following incubation with antibodies red blood cells were lysed and cells were fixed with Becton Dickenson FACS lysing solution.

[1] = test system: mature neutrophils in bone marrow; experiment: Bone marrow neutrophil numbers (flow cytometry); settings: as compared to saline and TAT-inactive BH3
Method: as §1
TAT-BH3 peptides decrease the number of neutrophils in circulation and in bone marrow. We have shown that numbers of neutrophils and macrophages are reduced in the joints of mice treated with TAT-BH3 peptides.

[2] = as compared to TAT-inactive BH3 and saline
[3] = peripheral blood, hematology analyzer, mean ± standard error
[4] = peripheral blood, mean ± standard error

**Q.** For `CC[C@H](C)[C@H](NC(=O)[C@H](CCCNC(=N)N)NC(=O)[C@H](CCCNC(=N)N)NC(=O)[C@H](CC(C)C)NC(=O)[C@H](CCC(=O)O)NC(=O)[C@H](CCC(N)=O)NC(=O)[C@H](C)NC(=O)[C@@H](NC(=O)[C@H](Cc1c[nH]c2ccccc12)NC(=O)[C@@H](NC(=O)[C@H](CCC(=O)O)NC(=O)[C@H](CCCNC(=N)N)NC(=O)[C@H](CCCNC(=N)N)NC(=O)[C@H](CCCNC(=N)N)NC(=O)[C@H](CCCN)NC(=O)[C@H](CCCNC(=N)N)NC(=O)[C@H](CCCNC(=N)N)NC(=O)[C@H](CCCCN)NC(=O)[C@H](CCCCN)NC(=O)[C@H](CCCNC(=N)N)NC(C)=O)[C@@H](C)CC)[C@@H](C)CC)C(=O)NCC(=O)N[C@@H](CC(=O)O)C(=O)N[C@@H](CCC(=O)O)C(=O)N[C@@H](Cc1ccccc1)C(=O)N[C@@H](CC(N)=O)C(=O)N[C@@H](C)C(=O)N[C@@H](Cc1ccc(O)cc1)C(=O)N[C@@H](Cc1ccc(O)cc1)C(=O)N[C@@H](C)C(=O)N[C@@H](CCCNC(=N)N)C(=O)O` [TAT-BH3] (Ac-RKKRR[Orn]RRREIWIAQELRRIGDEFNAYYAR-OH), which “circulating levels of IL-1β, TNFα, MCP-1, and KC in serum” value (IL-1β, TNFα, MCP-1, KC) is on record?
**A.** Its value is “no differences”.

**Q.** And the decrease in platelets (peripheral blood cells; as compared to TAT-inactive BH3)?
**A.** The decrease in platelets was 29%.

**Q.** What about the “number of circulating leukocytes” value (peripheral blood cells; [2]) of the same compound?
**A.** The value was “did not reduce”.

**Q.** And the “number of red blood cells” value (peripheral blood cells; [2])?
**A.** Its value is “did not reduce”.

**Q.** And the “decrease in numbers of neutrophils in peripheral blood” value (peripheral blood cells; as compared to TAT-inactive peptide and saline)?
**A.** Its value is 40%.

**Q.** What about the decrease in platelets (peripheral blood cells; as compared to saline) of the same compound?
**A.** Its decrease in platelets is 23%.

**Q.** And the “effect on platelet counts” value (peripheral blood cells; general statement)?
**A.** The value was “minimal effect”.

**Q.** And the Platelets (peripheral blood cells; [3])?
**A.** Its Platelets is 930.3 ± 55.32 (1E6).

**Q.** And the RBCs (peripheral blood cells; [3])?
**A.** Its RBCs is 9.60 ± 0.42 (1E6).

**Q.** And the “B-cells+” value (peripheral blood cells; [4])?
**A.** The value was 2.51 ± 0.11 (1E6).

**Q.** What about the “CD4+ T-cells” value (peripheral blood cells; [4]) of the same compound?
**A.** The value was 1.25 ± 0.06 (1E6).

**Q.** What about the “CD8+ T-cells” value (peripheral blood cells; [4]) of the same compound?
**A.** Its value is 0.86 ± 0.04 (1E6).

**Q.** What about the Inflammatory monocytes (peripheral blood cells; [4]) of the same compound?
**A.** The Inflammatory monocytes was 0.26 ± 0.03 (1E6).

**Q.** And the N-K-cells (peripheral blood cells; [4])?
**A.** The N-K-cells was 0.23 ± 0.02 (1E6).

**Q.** And the “Resident Monocytes” value (peripheral blood cells; [4])?
**A.** Its value is 0.21 ± 0.02″ (1E6).

**Q.** What about the T-cells (peripheral blood cells; [4]) of the same compound?
**A.** The T-cells was 2.20 ± 0.10 (1E6).

**Q.** And the “Total Leukocytes” value (peripheral blood cells; [4])?
**A.** Its value is 6.2 ± 0.22 (1E6).

**Q.** And the “decrease in numbers of mature neutrophils in bone marrow” value [1]?
**A.** Its value is 50%.
